Measurements published in patent US20100184596A1, “METHOD FOR THE CONTROL OF WEEDS IN TURF” (SYNGENTA CROP PROTECTION, INC., priority 2007, published 2010).

How the values were obtained:
Assay type in all cases: in vivo
[1] = test system: Digitaria ischaemum (smooth crabgrass); assay: Weed control via post emergence spray, in bluegrass/fescue mix (Table B5.7)
Procedure: (§1) The weed control efficacy of the compound of formula I was tested. The compound was applied via post emergence spray to a range of weeds, at various rates and spray treatment treatment regimes. Percentage weed control assessments were taken at various timepoints.

[2] = test system: Zoysiagrass v. Meyer; assay: Phytotoxicity via post emergence spray application (Table B2.2)
Procedure: The phytotoxicity of the compound of formula I to turfgrass species was tested. The compound was applied via post emergence spray to a range of warm and cool season turfgrass species at various rates and spray treatment treatment regimes. Percentage phytotoxicity assessments were taken at various timepoints.

[3] = test system: Trifolium repens (clover); assay: Weed control via post emergence spray, in bluegrass/fescue mix (Table B5.6)
Procedure: as §1

[4] = test system: Perennial ryegrass v. blend of Bright Star, Citation Fore and Quick Trans; assay: Phytotoxicity via granule application, various inert granules (Table B3.4); settings: 8 DAT
Procedure: (§2) The phytotoxicity of the compound of formula I to turfgrass species was tested. The compound was applied by distribution of granule formulations of formula I, post emergence, to turfgrass species at two rates. All treatments were watered-in 1 day after application. Percentage phytotoxicity assessments were taken at various timepoints.
(§3) In Tables B3.3 and B3.4, the granular formulations tested were made by spraying the compound of formula I onto various inert granules. In each of these trials, the granule formulations were tested at a higher rate than the corresponding spray application

[5] = test system: Tall fescue v. Coronado; assay: Phytotoxicity via granule application, various inert granules (Table B3.3); settings: 8 DAT
Procedure: as §2, §3

[6] = test system: St. Augustinegrass v. Floratam; assay: Phytotoxicity in combination with safeners, post emergence spray (Table B4.2); settings: no safener, 100 g ai/ha
Procedure: The phytotoxicity to turfgrass of the compound of formula I in combination with various safeners was tested. The combinations were applied by post emergence spray application. Percentage phytotoxicity assessments were taken at various timepoints. The safeners tested in these trials were cloquintocet-mexyl, cyprosulfamide, a compound of formula 2.3, and isoxadifen-ethyl.

COCCOCc1nc(C(F)(F)F)ccc1C(=O)C1=C(O)C2CCC(C2)C1=O (stereo not shown) [Formula I, 4-Hydroxy-3-[2-(2-methoxyethoxymethyl)-6-trifluoromethylpyridine-3-carbonyl]-bicyclo[3.2.1]oct-3-en-2-one]
% control ([1]; 10 g ai/ha, 7 DAT): 0.00%
% control ([1]; 10 g ai/ha, 14 DAT): 0.00%
% control ([1]; 10 g ai/ha, 22 DAT): 0.00%
% control ([1]; 10 g ai/ha, 29 DAT): 0.00%
% control ([1]; 10 g ai/ha, 46 DAT): 1.25%
% control ([1]; 20 g ai/ha, 7 DAT): 0.00%
% control ([1]; 20 g ai/ha, 14 DAT): 2.50%
% control ([1]; 20 g ai/ha, 22 DAT): 5.00%
% control ([1]; 20 g ai/ha, 29 DAT): 3.75%
% control ([1]; 20 g ai/ha, 46 DAT): 7.50%
% control ([1]; 40 g ai/ha, 7 DAT): 0.00%
% control ([1]; 40 g ai/ha, 14 DAT): 0.00%
% control ([1]; 40 g ai/ha, 22 DAT): 2.50%
% control ([1]; 40 g ai/ha, 29 DAT): 8.75%
% control ([1]; 40 g ai/ha, 46 DAT): 30.00%
% control ([1]; 80 g ai/ha, 7 DAT): 0.00%
% control ([1]; 80 g ai/ha, 14 DAT): 0.00%
% control ([1]; 80 g ai/ha, 22 DAT): 5.00%
% control ([1]; 80 g ai/ha, 29 DAT): 17.50%
% control ([1]; 80 g ai/ha, 46 DAT): 51.25%
% control ([1]; 160 g ai/ha, 7 DAT): 0.00%
% control ([1]; 160 g ai/ha, 14 DAT): 6.25%
% control ([1]; 160 g ai/ha, 22 DAT): 8.75%
% control ([1]; 160 g ai/ha, 29 DAT): 20.00%
% control ([1]; 160 g ai/ha, 46 DAT): 70.00%
% phytotoxicity ([2]; 1 appl, 140 g ai/ha, 8 DAT): 42.50%
% phytotoxicity ([2]; 1 appl, 140 g ai/ha, 14 DAT): 51.25%
% phytotoxicity ([2]; 1 appl, 140 g ai/ha, 29 DAT): 41.25%
% phytotoxicity ([2]; 1 appl, 140 g ai/ha, 35 DAT): 25.00%
% phytotoxicity ([2]; 1 appl, 140 g ai/ha, 43 DAT): 7.50%
% phytotoxicity ([2]; 1 appl, 140 g ai/ha, 51 DAT): 5.00%
% phytotoxicity ([2]; 1 appl, 140 g ai/ha, 60 DAT): 0.00%
% phytotoxicity ([2]; 1 appl, 280 g ai/ha, 8 DAT): 45.00%
% phytotoxicity ([2]; 1 appl, 280 g ai/ha, 14 DAT): 57.50%
% phytotoxicity ([2]; 1 appl, 280 g ai/ha, 29 DAT): 61.25%
% phytotoxicity ([2]; 1 appl, 280 g ai/ha, 35 DAT): 28.75%
% phytotoxicity ([2]; 1 appl, 280 g ai/ha, 43 DAT): 8.75%
% phytotoxicity ([2]; 1 appl, 280 g ai/ha, 51 DAT): 3.75%
% phytotoxicity ([2]; 1 appl, 280 g ai/ha, 60 DAT): 0.00%
% phytotoxicity ([2]; 2 appl, 140 g ai/ha, 8 DAT): 33.75%
% phytotoxicity ([2]; 2 appl, 140 g ai/ha, 14 DAT): 47.50%
% phytotoxicity ([2]; 2 appl, 140 g ai/ha, 29 DAT): 17.50%
% phytotoxicity ([2]; 2 appl, 140 g ai/ha, 35 DAT): 43.75%
% phytotoxicity ([2]; 2 appl, 140 g ai/ha, 43 DAT): 27.50%
% phytotoxicity ([2]; 2 appl, 140 g ai/ha, 51 DAT): 8.75%
% phytotoxicity ([2]; 2 appl, 140 g ai/ha, 60 DAT): 0.00%
% phytotoxicity ([2]; 2 appl, 280 g ai/ha, 8 DAT): 38.75%
% phytotoxicity ([2]; 2 appl, 280 g ai/ha, 14 DAT): 57.50%
% phytotoxicity ([2]; 2 appl, 280 g ai/ha, 29 DAT): 52.50%
% phytotoxicity ([2]; 2 appl, 280 g ai/ha, 35 DAT): 47.50%
% phytotoxicity ([2]; 2 appl, 280 g ai/ha, 43 DAT): 28.75%
% phytotoxicity ([2]; 2 appl, 280 g ai/ha, 51 DAT): 12.50%
% phytotoxicity ([2]; 2 appl, 280 g ai/ha, 60 DAT): 0.00%
% control ([3]; 10 g ai/ha, 7 DAT): 0.00%
% control ([3]; 10 g ai/ha, 14 DAT): 21.25%
% control ([3]; 10 g ai/ha, 22 DAT): 23.75%
% control ([3]; 10 g ai/ha, 29 DAT): 8.75%
% control ([3]; 10 g ai/ha, 46 DAT): 10.00%
% control ([3]; 20 g ai/ha, 7 DAT): 0.00%
% control ([3]; 20 g ai/ha, 14 DAT): 22.50%
% control ([3]; 20 g ai/ha, 22 DAT): 28.75%
% control ([3]; 20 g ai/ha, 29 DAT): 22.50%
% control ([3]; 20 g ai/ha, 46 DAT): 28.75%
% control ([3]; 40 g ai/ha, 7 DAT): 11.25%
% control ([3]; 40 g ai/ha, 14 DAT): 21.25%
% control ([3]; 40 g ai/ha, 22 DAT): 22.50%
% control ([3]; 40 g ai/ha, 29 DAT): 35.00%
% control ([3]; 40 g ai/ha, 46 DAT): 47.50%
% control ([3]; 80 g ai/ha, 7 DAT): 17.50%
% control ([3]; 80 g ai/ha, 14 DAT): 22.50%
% control ([3]; 80 g ai/ha, 22 DAT): 30.00%
% control ([3]; 80 g ai/ha, 29 DAT): 52.50%
% control ([3]; 80 g ai/ha, 46 DAT): 81.25%
% control ([3]; 160 g ai/ha, 7 DAT): 22.50%
% control ([3]; 160 g ai/ha, 14 DAT): 27.50%
% control ([3]; 160 g ai/ha, 22 DAT): 41.25%
% control ([3]; 160 g ai/ha, 29 DAT): 76.25%
% control ([3]; 160 g ai/ha, 46 DAT): 91.25%
% phytotoxicity ([4]; Agsorb LUM GA granule, 520 g ai/ha): 20.0%
% phytotoxicity ([4]; Agsorb LUM MS granule, 520 g ai/ha): 5.8%
% phytotoxicity ([4]; Agsorb RUM GA granule, 520 g ai/ha): 18.8%
% phytotoxicity ([4]; Bio Dac granule, 520 g ai/ha): 13.3%
% phytotoxicity ([4]; DG Lite granule, 520 g ai/ha): 18.8%
% phytotoxicity ([4]; Eco Gran granule, 520 g ai/ha): 18.8%
% phytotoxicity ([4]; Non dispersing extruded granules, 520 g ai/ha): 18.8%
% phytotoxicity ([4]; Oil dry, 520 g ai/ha): 6.3%
% phytotoxicity ([4]; Spray, 260 g ai/ha): 31.3%
% phytotoxicity ([5]; Agsorb LUM GA granule, 680 g ai/ha): 23.8%
% phytotoxicity ([5]; Agsorb LUM MS granule, 680 g ai/ha): 9.3%
% phytotoxicity ([5]; Agsorb RUM GA granule, 680 g ai/ha): 18.8%
% phytotoxicity ([5]; Bio Dac granule, 680 g ai/ha): 13.8%
% phytotoxicity ([5]; DG Lite granule, 680 g ai/ha): 20.0%
% phytotoxicity ([5]; Eco Gran granule, 680 g ai/ha): 20.0%
% phytotoxicity ([5]; Non dispersing extruded granules, 680 g ai/ha): 21.3%
% phytotoxicity ([5]; Oil dry granule, 680 g ai/ha): 12.5%
% phytotoxicity ([5]; Spray, 340 g ai/ha): 18.8%
% phytotoxicity ([6]; 9 DAT): 46.70%
% phytotoxicity ([6]; 13 DAT): 50.00%
% phytotoxicity ([6]; 19 DAT): 11.70%
% phytotoxicity ([6]; 25 DAT): 5.00%
